Laboratory results taken from patent US20230218706A1 (9 Meters Biopharma, Inc., priority 2020, published 2023).
“Also recorded” adds a separate entry of the source. Where a SMILES comes first, the peptide text is derived from it. Where no end group is shown, it is not given here. [ ]: non-standard residue; d: D form.

Experiments:
[1] = test system: pig ischemic jejunum tissue; assay: Ex vivo assessment of peptide stability (degradation by brush border enzymes) in pig ischemic jejunum tissue; conditions: for peptide concentration, T = 0 mins after addition / peptide concentration, T = 30 mins after addition / peptide concentration, T = 120 mins after addition: 1 μm addition of each peptide to pig ischemic jejunum tissue
Description: (§1) After 45-minutes of ischemia, the pigs were euthanized, and intestinal segments were collected. Non-ischemic control tissue was also collected at this time. Following tissue collection, the seromuscular layer was stripped from the mucosa while the tissue was bathed in oxygenated (95% 02, 5% CO2) Ringer's solution (in mmol/L: 154 Na^+, 6.3 K^+, 137 Cl^−, and 24 HCO3−; pH 7.4). The mucosa was subsequently mounted in 1.1-cm^2 aperture Ussing chambers, as described in previous studies, which are herein incorporated by reference in their entireties, Moeser, A. J.; Nighot, P. K.; Ryan, K. A.; Wooten, J. G.; Blikslager, A. T. Prostaglandin-mediated inhibition of Na+/H+ exchanger isoform 2 stimulates recovery of barrier function in ischemia-injured intestine. Am J Physiol Gastrointest Liver Physiol (2006), 291, G885-94; and Jin, Y.; Blikslager, A. T. Myosin light chain kinase mediates intestinal barrier dysfunction via occludin endocytosis during anoxia/reoxygenation injury. Am J Physiol Cell Physiol (2016), 311, C996-C1004. Tissues were bathed on both the mucosal and serosal sides with 10 mL Ringer's solution. The mucosal bathing solution contained 10 mM mannitol while the serosal side was osmotically balanced with 10 mM glucose. Bathing solutions were oxygenated (95% O2, 5% CO2) and circulated in water-jacketed reservoirs. The spontaneous potential difference (PD) was measured using Ringer-agar bridges connected to calomel electrodes, and the PD was short-circuited through Ag—AgCl electrodes using a voltage clamp that was corrected for fluid resistance. TER (Ω·cm^2) was calculated from the spontaneous PD and short-circuit current (Isc). If the spontaneous PD was between −1.0 and 1.0 mV, tissues were current clamped at ±100 μA for 5-seconds, and the PD was recorded. Isc and PD were recorded at 15-minute intervals over a 4-hour experiment. After tissues were mounted on Ussing chambers, all tissues were allowed to acclimate for a period of 30-minutes to establish stable baseline measurements, after which experimental treatments of larazotide or larazotide analogs was added to the apical chamber. Tissues were monitored by measuring transepithelial resistance (TER) for 240 min. Samples of Ringers solution were collected at select timepoints and quenched with 5% trifluoroacetic acid (TFA) solution (in 80% acetonitrile (ACN): 20% DI water). Quenched samples were centrifuged at 13000×g for 5-minutes and the resulting supernatants were stored at −80° C. for future MS analysis.
The recovery effects of Analogs #5 and 6 were also compared in an ex vivo test for recovery of ischemic-injured pig jejunum tissue. […] Analogs #5 and 6 were further compared for peptide stability—Analog #5 (D-Val), Analog #6 (All D) and larazotide concentrations were measured at TO, 30, and 120 minutes after 1 μm addition of each to pig ischemic jejunum tissue.
A set of experiments was conducted in order to compare the all-D amino acid larazotide analog (Analog #6) with larazotide in terms of degradation profiles, recovery effects, and dose response profiles.

[2] = test system: BLM-induced pulmonary fibrosis model mice
[3] = test system: ischemic-injured porcine jejunum; assay: Ex vivo recovery of transepithelial electrical resistance (TEER/TER) of ischemic-injured porcine jejunum in Ussing chambers; assay type: cell-based, pig; conditions: for effect of excess fragment on action of Analog #6: 10 μM fragment applied 30 mins before 0.1 μM Analog #6 (100 fold excess), FIGS. 8-10; for activity as tight junction regulators: fragment alone; for effect of fragment on larazotide activity: fragment mixed with full-length larazotide (10 μM fragment + 1 μM larazotide, FIG. 7); for induction of recovery of ischemic-injured tissue: FIG. 2
Description: In order to evaluate the activity profile of larazotide and larozotide analogs, an ex vivo assay was employed measuring transepithelial electrical resistance (TEER) of ischemic-injured porcine jejunum.
Several larazotide analogs were initially tested in an ex vivo model, measuring the recovery of an ischemic-injured pig jejunum tissue.
Six-to-eight-week-old Yorkshire crossbred pigs of either sex were individually housed and maintained on a commercially pelleted feed. Pigs were held off feed for 12 hours prior to experimental surgery. General anesthesia was induced with xylazine (1.5 mg/kg IM), ketamine (11 mg/kg IM), followed by mask delivery of isoflurane vaporized in 100% 02. Pigs were subsequently orotracheally intubated, followed by continued delivery of isoflurane in 100% 02 to maintain a surgical plane of anesthesia. An intravenous catheter was placed in an ear vein for delivery of fluids during surgery (lactated Ringer solution, 15 m1·kg^−1h^−1, IV). The distal jejunum was approached via a ventral midline incision. Jejunal segments were delineated by ligating the intestine at 8-10 cm intervals with 2-0 silk, and were subjected to segmental ischemia by ligating the local mesenteric blood supply with 2-0 silk for 45-minutes.
as §1, with “chamber.” for “chamber. Tissues were monitored by measuring transepithelial resistance (TER) for 240 min. Samples of Ringers solution were collected at select timepoints and quenched with 5% trifluoroacetic acid (TFA) solution (in 80% acetonitrile (ACN): 20% DI water). Quenched samples were centrifuged at 13000×g for 5-minutes and the resulting supernatants were stored at −80° C. for future MS analysis.”

Celiac disease symptoms = conditions: cited from earlier work

CC(C)C[C@H](NC(=O)[C@H](NC(=O)CNC(=O)CN)C(C)C)C(=O)N[C@H](C(=O)N[C@@H](CCC(N)=O)C(=O)N1CCC[C@H]1C(=O)NCC(=O)O)C(C)C [Analog #5, H2N-GG(dV)LVQPG-OH] (H-GG[dV]LVQPG-OH)
peptide concentration, T = 0 mins after addition [1]: 0.510 µg/mL
peptide concentration, T = 30 mins after addition [1]: 0.012 µg/mL
peptide concentration, T = 120 mins after addition [1]: 0.005 µg/mL

CC(C)C[C@@H](NC(=O)[C@H](NC(=O)CNC(=O)CN)C(C)C)C(=O)N[C@@H](C(=O)N[C@H](CCC(N)=O)C(=O)N1CCC[C@@H]1C(=O)NCC(=O)O)C(C)C [Analog #6, H2N-GG(dV)(dL)(dV)(dQ)(dP)G-OH] (H-GG[dV][dL][dV][dQ][dP]G-OH)
lung fibrosis, Ashcroft grading of Masson's Trichrome-stained right lung sections ([2]; 1 mg/kg orally once daily Day 0 to 20, sacrifice Day 21, FIG. 18): less fibrosis than either the vehicle or larazotide samples
therapeutic effect in mouse model of pulmonary fibrosis ([2]; provided orally): better therapeutic effect than larazotide
dose response of repair of injured intestine (TER) ([3]; 0.01 μM, 0.1 μM, 1 μM and 10 μM, FIG. 6): did not exhibit the distinct bell-shaped dose-response of larazotide
recovery of TER ([3]; 0.1 μM, FIG. 6): induced good recovery of TER
recovery of ischemic-injured intestine (transepithelial electrical resistance) ([3]; 1 μM, recovery period of 240 minutes, FIG. 5): induces recovery to substantially the same extent as larazotide
recovery effect on ischemic-injured pig jejunum tissue ([3]; FIG. 3, Analog #6 compared with Analog #5): pronounced recovery effect as compared to Analog #5
peptide concentration, T = 0 mins after addition [1]: 0.517 ug/ml ug/mL
peptide concentration, T = 30 mins after addition [1]: 0.436 µg/mL
peptide concentration, T = 120 mins after addition [1]: 0.086 µg/mL
resistance to brush border enzyme degradation ([1]; jejunum epithelial brush border enzymes, in words (Table 2, FIG. 4)): significant resistance to brush border enzyme degradation as compared to larazotide and Analog #5; also recorded: significantly more resistant to degradation than larazotide

(d)Val-(d)Leu-(d)Val-(d)Gln-(d)Pro-Gly [Analog A6F2]
effect of excess fragment on action of Analog #6 [3]: does not appear to be meaningfully blocked

GVLVQPG [Fragment 1, reference compound]
activity as tight junction regulators [3]: inactive as tight junction regulators
effect of fragment on larazotide activity [3]: inhibit larazotide activity; also recorded: activity is completely abolished

Gly-(d)Val-(d)Leu-(d)Val-(d)Gln-(d)Pro-Gly [Analog A6F1]
effect of excess fragment on action of Analog #6 [3]: less significant impact on the action of the all-D amino acid larazotide analog

H2N-(dV)GGVLVQPG-OH (H-[dV]GGVLVQPG-OH; SMILES CC(C)C[C@H](NC(=O)[C@@H](NC(=O)CNC(=O)CNC(=O)[C@H](N)C(C)C)C(C)C)C(=O)N[C@H](C(=O)N[C@@H](CCC(N)=O)C(=O)N1CCC[C@H]1C(=O)NCC(=O)O)C(C)C) [Analog #2]
induction of recovery of ischemic-injured tissue [3]: no significant induction of recovery

H2N-GGV(dL)VQPG-OH (H-GGV[dL]VQPG-OH) [Analog #1]
induction of recovery of ischemic-injured tissue [3]: no significant induction of recovery

H2N-VGGVLVQPG-OH (H-VGGVLVQPG-OH) [Analog #3]
induction of recovery of ischemic-injured tissue [3]: no significant induction of recovery

H-GGVLVQPG-OH [Larazotide, reference compound]
dose-response of repair of ischemic-injured intestine (TEER) ([3]; FIG. 1, low, middle and high dose range): “bell-shaped” dose-dependent manner
peptide concentration, T = 0 mins after addition [1]: 0.508 µg/mL
peptide concentration, T = 30 mins after addition [1]: 0.212 µg/mL
peptide concentration, T = 120 mins after addition [1]: 0.007 µg/mL
activity at higher doses in clinical trials (Celiac disease symptoms; higher doses (e.g., 1 mg and 2 mg doses)): attenuation of activity, or no activity at all
reduction of Celiac disease symptoms (Celiac disease symptoms; lower doses (e.g., 0.5 mg dose)): significant benefit at reducing Celiac disease symptoms

VLVQPG [Fragment 2, reference compound]
activity as tight junction regulators [3]: inactive as tight junction regulators
effect of fragment on larazotide activity [3]: inhibit larazotide activity; also recorded: activity is completely abolished
